Test results taken from US20200369728A1, “PEPTIDOMIMETIC MACROCYCLES AND USES THEREOF” (Aileron Therapeutics, Inc., priority 2015, published 2020).
Bridge positions count the residues as written; N and C are the ends. Square brackets hold non-standard residues; d marks the D form. Peptide text beside a SMILES is read from it. Phe(4-COOH) = N[C@@H](Cc1ccc(C(=O)O)cc1)C(=O)O; R8 = C=CCCCCCC[C@@](C)(N)C(=O)O; Cba = N[C@@H](CC1CCC1)C(=O)O; S5 = C=CCCC[C@](C)(N)C(=O)O

Legend:
[1] = MCF-7 breast cancer xenograft study, body weight and deaths; assay type: in vivo, mice; settings: […] three times per week iv, 10 mice per group
Source text: A negative control stapled peptide.

RKO = test: Cell viability assay (MTT), RKO; settings: read-out: RKO EC50 (72 h)
SJSA-1 cells = test: Cell lysis by peptidomimetic macrocycles (LDH release); assay type: cell-based; settings: SJSA-1, 1 h
Procedure, shortened: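 SJSA-1 cells plated the day before, switched to RPMI with 1% FBS, then exposed 1 h at 37 °C to macrocycle at final 50 μM to 6.25 μM in 0.5% DMSO. LDH released into the supernatant was measured by kit. Controls: 0.5% DMSO (non-lytic), 10 μM melittin and 1% Triton X-100 (lytic).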

SJSA-1 = test: Cell viability assay (MTT), SJSA-1; settings: read-out: SJSA-1 EC50 (72 h); 72 h, MTT
Caspase 3 = Caspase 3 detection assay in SJSA1 cells; assay type: cell-based; settings: SJSA1, 48 h, Caspase 3 activation over DMSO-treated cells
[2] = Circular dichroism (CD) analysis of alpha-helicity; assay type: physicochemical; settings: for Molar Ellipticity TFE − Molar Ellipticity Benign / Molar Ellipticity 50% TFE (222 in 50% TFE) / Molar Ellipticity Benign (222 in 0% TFE): 222 nm; for Molar Ellipticity 50% TFE (222 in 50% TFE): CD buffer with 50% TFE; for Molar Ellipticity 50% TFE (222 in 50% TFE) / Molar Ellipticity Benign (222 in 0% TFE): 0.05 mg/ml, 4° C.; for Molar Ellipticity Benign (222 in 0% TFE): benign CD buffer (20 mM phosphoric acid, pH 2); for % Helix benign compared to 50% TFE parent (CD): benign buffer
Protocol: Peptide solutions were analyzed by CD spectroscopy using a Jasco J-815 spectropolarimeter (Jasco Inc., Easton, Md.) with the Jasco Spectra Manager Ver. 2 system software. A Peltier temperature controller was used to maintain temperature control of the optical cell. Results are expressed as mean molar ellipticity (deg cm^2 dmol^−1) as calculated from the equation [0]=θobs·MRW/10*l*c where θobs is the observed ellipticity in millidegrees, MRW is the mean residue weight of the peptide (peptide molecular weight/number of residues), 1 is the optical path length of the cell in centimeters, and c is the peptide concentration in mg/ml. Peptide concentrations were determined by amino acid analysis. Stock solutions of peptides were prepared in benign CD buffer (20 mM phosphoric acid, pH 2). The stocks were used to prepare peptide solutions of 0.05 mg/ml in either benign CD buffer or CD buffer with 50% trifluoroethanol (TFE) for analyses in a 10 mm pathlength cell. Variable wavelength measurements of peptide solutions were scanned at 4° C. from 195 to 250 nm, in 0.2 nm increments, and a scan rate 50 nm per minute. The average of six scans was reported.

MDM2 (In-house, 41 kD) = target: T1, MDM2 (In-house, 41 kD) (UniProt Q00987 1-125, limits assumed); test: competitive fluorescence polarization, displacement of FAM-labeled linear peptide from MDM2; grade decoded by the scale of Table 4
T1 construct: Construct limits and any tag are unknown; also called HDM2
T1 sequence (Q00987 1-125 limits assumed): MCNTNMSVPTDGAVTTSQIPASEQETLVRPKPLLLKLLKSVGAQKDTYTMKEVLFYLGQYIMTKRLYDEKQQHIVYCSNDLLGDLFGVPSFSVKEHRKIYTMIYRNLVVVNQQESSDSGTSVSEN

CC[C@H](C)[C@H](NC(=O)[C@H](C)NC(=O)[C@H](C)NC(=O)[C@]1(C)CCCC=CCCCCCC[C@@](C)(NC(=O)[C@H](Cc2ccccc2)NC(=O)[C@@H](NC(=O)[C@H](CC(C)C)NC(C)=O)[C@@H](C)O)C(=O)N[C@@H](CCC(=O)O)C(=O)N[C@@H](Cc2ccc(C(=O)O)cc2)C(=O)N[C@@H](Cc2c[nH]c3ccccc23)C(=O)N[C@@H](C)C(=O)N[C@@H](CCC(N)=O)C(=O)N[C@@H](CC2CCC2)C(=O)N1)C(=O)N[C@H](C)C(N)=O [SP249] (Ac-LTF[R8]E[Phe(4-COOH)]WAQ[Cba][S5]AAI[dA]-NH2; staple 4-11)
mice died during treatment [1]: 4

CC(=O)N[C@@H](CC(C)C)C(=O)N[C@H](C(=O)N[C@@H](Cc1ccccc1)C(=O)N[C@]1(C)CCCCCC/C=C/CCC[C@@](C)(C(=O)N[C@@H](C)C(=O)N[C@@H](C)C(=O)N[C@@H](C)C(=O)N[C@@H](C)C(=O)N[C@@H](C)C(=O)N[C@H](C)C(N)=O)NC(=O)[C@H](CC(C)C)NC(=O)[C@H](CCC(N)=O)NC(=O)[C@H](C)NC(=O)[C@H](Cc2c[nH]c3ccccc23)NC(=O)[C@H](Cc2ccc(O)cc2)NC(=O)[C@H](CCC(=O)O)NC1=O)[C@@H](C)O [compound 331]
EC50 (RKO): < 5 µM
6.25 μM % Lysed cells (1 h LDH) (SJSA-1 cells): 0%
25 μM % Lysed cells (1 h LDH) (SJSA-1 cells): 0%
50 μM % Lysed cells (1 h LDH) (SJSA-1 cells): 0%
EC50 (SJSA-1): < 5 µM
caspase 0.3 μM (Caspase 3): 4.5
caspase 1 μM (Caspase 3): 8
caspase 3 μM (Caspase 3): 11
caspase 10 μM (Caspase 3): 14.5
caspase 30 μM (Caspase 3): 30.5

CC[C@H](C)[C@H](NC(=O)[C@H](C)NC(=O)[C@H](C)NC(=O)[C@]1(C)CCCC=CCCCCCC[C@@](C)(NC(=O)[C@H](Cc2ccccc2)NC(=O)[C@@H](NC(=O)[C@H](CC(C)C)NC(C)=O)[C@@H](C)O)C(=O)N[C@@H](C)C(=O)N[C@@H](Cc2ccc(O)cc2)C(=O)N[C@@H](Cc2c[nH]c3ccccc23)C(=O)N[C@@H](C)C(=O)N[C@@H](CCC(N)=O)C(=O)N[C@@H](CC(C)C)C(=O)N1)C(=O)N[C@H](C)C(N)=O (single isomer, unassigned) [compound 70]
EC50 (RKO): < 5 µM
EC50 (SJSA-1): < 5 µM
caspase 3 μM (Caspase 3): 1
caspase 10 μM (Caspase 3): 9
caspase 30 μM (Caspase 3): 26

CC[C@H](C)[C@H](NC(=O)[C@H](C)NC(=O)[C@H](C)NC(=O)[C@]1(C)CCCC=CCCCCCC[C@@](C)(NC(=O)[C@H](Cc2ccccc2)NC(=O)[C@@H](NC(=O)[C@H](CC(C)C)NC(C)=O)[C@@H](C)O)C(=O)N[C@@H](C)C(=O)N[C@@H](Cc2ccc(O)cc2)C(=O)N[C@@H](Cc2c[nH]c3ccccc23)C(=O)N[C@@H](C)C(=O)N[C@@H](CCC(N)=O)C(=O)N[C@@H](CC(C)C)C(=O)N1)C(=O)N[C@@H](C)C(N)=O (single isomer, unassigned) [compound 65]
EC50 (RKO): 5 to 15 µM
6.25 μM % Lysed cells (1 h LDH) (SJSA-1 cells): 0%
25 μM % Lysed cells (1 h LDH) (SJSA-1 cells): 0%
50 μM % Lysed cells (1 h LDH) (SJSA-1 cells): 2%
EC50 (SJSA-1): < 5 µM
caspase 0.3 μM (Caspase 3): 1
caspase 3 μM (Caspase 3): 6
caspase 10 μM (Caspase 3): 28
caspase 30 μM (Caspase 3): 34

CC[C@H](C)[C@H](NC(=O)[C@H](C)NC(=O)[C@H](C)NC(=O)[C@]1(C)CCC/C=C/CCCCCC[C@@](C)(NC(=O)[C@H](Cc2ccccc2)NC(=O)[C@@H](NC(=O)[C@H](CC(C)C)NC(C)=O)[C@@H](C)O)C(=O)N[C@@H](C)C(=O)N[C@@H](Cc2ccc(O)cc2)C(=O)N[C@@H](Cc2c[nH]c3ccccc23)C(=O)N[C@@H](C)C(=O)N[C@@H](CCC(N)=O)C(=O)N[C@@H](CC(C)C)C(=O)N1)C(=O)N[C@H](C)C(N)=O [compound 71]
EC50 (RKO): < 5 µM
6.25 μM % Lysed cells (1 h LDH) (SJSA-1 cells): 0%
25 μM % Lysed cells (1 h LDH) (SJSA-1 cells): 0%
50 μM % Lysed cells (1 h LDH) (SJSA-1 cells): 0%
EC50 (SJSA-1): < 5 µM
% Helix 50% TFE compared to 50% TFE parent (CD) [2]: 123.7%
Molar Ellipticity TFE − Molar Ellipticity Benign [2]: −17835.9 deg cm^2 dmol^−1
Molar Ellipticity 50% TFE (222 in 50% TFE) [2]: −17957 deg cm^2 dmol^−1
Molar Ellipticity Benign (222 in 0% TFE) [2]: −121.2 deg cm^2 dmol^−1
% Helix benign compared to 50% TFE parent (CD) [2]: 0.8%
caspase 0.3 μM (Caspase 3): 0.95
caspase 1 μM (Caspase 3): 1.02
caspase 3 μM (Caspase 3): 3.68
caspase 10 μM (Caspase 3): 14.72
caspase 30 μM (Caspase 3): 23.52

CCCC[C@H](NC(=O)[C@H](C)NC(=O)[C@H](C)NC(=O)[C@]1(C)CCC/C=C/CCCCCC[C@@](C)(NC(=O)[C@H](Cc2ccccc2)NC(=O)[C@@H](NC(=O)[C@H](CC(C)C)NC(C)=O)[C@@H](C)O)C(=O)N[C@@H](C)C(=O)N[C@@H](Cc2ccc(O)cc2)C(=O)N[C@@H](Cc2c[nH]c3ccccc23)C(=O)N[C@@H](C)C(=O)N[C@@H](CCC(N)=O)C(=O)N[C@@H](CC(C)C)C(=O)N1)C(=O)N[C@@H](C)C(N)=O [compound 69]
EC50 (RKO): < 5 µM
6.25 μM % Lysed cells (1 h LDH) (SJSA-1 cells): 1%
25 μM % Lysed cells (1 h LDH) (SJSA-1 cells): −0.5%
50 μM % Lysed cells (1 h LDH) (SJSA-1 cells): 5%
EC50 (SJSA-1): < 5 µM
% Helix 50% TFE compared to 50% TFE parent (CD) [2]: 148.2%
Molar Ellipticity TFE − Molar Ellipticity Benign [2]: −21407.1 deg cm^2 dmol^−1
Molar Ellipticity 50% TFE (222 in 50% TFE) [2]: −21509.7 deg cm^2 dmol^−1
Molar Ellipticity Benign (222 in 0% TFE) [2]: −102.6 deg cm^2 dmol^−1
% Helix benign compared to 50% TFE parent (CD) [2]: 0.7%
caspase 0.3 μM (Caspase 3): 4.34
caspase 1 μM (Caspase 3): 9.51
caspase 3 μM (Caspase 3): 16.39
caspase 10 μM (Caspase 3): 26.59
caspase 30 μM (Caspase 3): 26.11

B1: SP612, Ac-LTF$r8EYWACitL$AAAAAa-NH2 (peptide)
peptide: LTFAEYWAXLAAAAAAA
modifications: not fully specified; N-terminal acetyl; $r8 at 4 crosslinked by all-carbon olefin staple to $ at 11; Cit (citrulline) at 9; D-Ala (a) at C-terminus; C-terminal amide
notes: stapled peptidomimetic macrocycle
Ki (MDM2 (In-house, 41 kD)): ≤ 0.01 µM

B2: SP686, 5-TAMRA-BaLTF$r8EYWAQCba$SAA-NH2 (peptide)
peptide: ALTFAEYWAQAASAA
modifications: not fully specified; N-terminal 5-TAMRA on beta-alanine (Ba); $r8 crosslinked by all-carbon olefin staple to $; Cba (cyclobutyl alanine); C-terminal amide
notes: TAMRA-labeled stapled peptidomimetic macrocycle
Ki (MDM2 (In-house, 41 kD)): ≤ 0.01 µM

B3: SP433, Ac-LTF$r8EYWCou7QCba$SAA-NH2 (peptide)
peptide: LTFAEYWXQAASAA
modifications: not fully specified; N-terminal acetyl; $r8 at 4 crosslinked by all-carbon olefin staple to $ at 11; Cou7 at 8 (structure shown only as a drawing); Cba (cyclobutyl alanine) at 10; C-terminal amide
notes: as for B1
Ki (MDM2 (In-house, 41 kD)): ≤ 0.01 µM

B4: SP608, Ac-LTF$r8EYWALL$AAAAAa-NH2 (peptide)
peptide: LTFAEYWALLAAAAAAA
modifications: not fully specified; N-terminal acetyl; $r8 at 4 crosslinked by all-carbon olefin staple to $ at 11; D-Ala (a) at C-terminus; C-terminal amide
notes: as for B1
Ki (MDM2 (In-house, 41 kD)): ≤ 0.01 µM

B5: SP611, Ac-LTF$r8EYWANL$AAAAAa-NH2 (peptide)
peptide: LTFAEYWANLAAAAAAA
modifications: not fully specified; N-terminal acetyl; $r8 at 4 crosslinked by all-carbon olefin staple to $ at 11; D-Ala (a) at C-terminus; C-terminal amide
notes: as for B1
Ki (MDM2 (In-house, 41 kD)): ≤ 0.01 µM

B6: SP613, Ac-LTF$r8EYWAHL$AAAAAa-NH2 (peptide)
peptide: LTFAEYWAHLAAAAAAA
modifications: not fully specified; N-terminal acetyl; $r8 at 4 crosslinked by all-carbon olefin staple to $ at 11; D-Ala (a) at C-terminus; C-terminal amide
notes: as for B1
Ki (MDM2 (In-house, 41 kD)): ≤ 0.01 µM

B7: SP610, Ac-LTF$r8EYWASL$AAAAAa-NH2 (peptide)
peptide: LTFAEYWASLAAAAAAA
modifications: not fully specified; N-terminal acetyl; $r8 at 4 crosslinked by all-carbon olefin staple to $ at 11; D-Ala (a) at C-terminus; C-terminal amide
notes: as for B1
Ki (MDM2 (In-house, 41 kD)): ≤ 0.01 µM

B8: SP609, Ac-LTF$r8EYWAAibL$AAAAAa-NH2 (peptide)
peptide: LTFAEYWAXLAAAAAAA
modifications: not fully specified; N-terminal acetyl; $r8 at 4 crosslinked by all-carbon olefin staple to $ at 11; Aib (2-aminoisobutyric acid) at 9; D-Ala (a) at C-terminus; C-terminal amide
notes: as for B1
Ki (MDM2 (In-house, 41 kD)): ≤ 0.01 µM

B9: SP595, Ac-LTF$r8EYWAQCba$S-NH2 (peptide)
peptide: LTFAEYWAQAAS
modifications: not fully specified; N-terminal acetyl; $r8 at 4 crosslinked by all-carbon olefin staple to $ at 11; Cba (cyclobutyl alanine) at 10; C-terminal amide
notes: as for B1
Ki (MDM2 (In-house, 41 kD)): > 1 µM
